Source: PMC5527305, “Prevention of Ophthalmia Neonatorum Caused by Neisseria gonorrhoeae Using a Fatty Acid-Based Formulation” (mBio, 2017)
In brackets after ≈: the same amount, converted by molar mass. Entries after “also recorded” stand apart in the source; their conditions may differ. Like-named read-outs stand apart in the source and are kept apart here.

Tests used:
chorioallantoic membrane = assay: Hen's egg test-chorioallantoic membrane (HET-CAM); set-up: species or system white leghorn eggs
Experimental: The samples were all tested on the HET-CAM at 1 mg/ml, providing a range of 3.6 mM for linolenic acid to 5 mM for lauric acid. […] Results from the controls and an example of a tested candidate are illustrated in Fig. 5.
The HET-CAM was performed as described by Alany and coworkers ([20]). Fertilized white leghorn eggs (Henry Stewart and Co. Ltd., Fakenham, Norfolk, United Kingdom) were checked for damage and incubated at 37°C with 60% to 70% relative humidity. At day 4, the eggs were removed from their shells and placed in incubation chambers. At day 9, the CAMs were tested. This was done by applying 200 µl of the testing material and monitoring inflammatory responses at 30, 120, and 300 s. At each of these time points, the conjunctival irritation potential of the test substance on the CAMs was evaluated by assessing them against the published scoring system ([20]).

[1] = system: N. gonorrhoeae strain NCCP11945; assay: Growth inhibition screen on GC solid media containing 1 mM candidate; assay type: cell-based, Neisseria gonorrhoeae; conditions: 1 mM candidate in GC agar media; Yes = strain NCCP11945 did not grow
Experimental: (§1) To find potential candidates, 37 organic acids, esters, and salts were tested in a two-tiered screening process. These candidates were chosen based on the carbon chain lengths of the fatty acids, the presence or absence of saturation, and modifications to represent a diverse selection of organic acid candidates. The first screen aimed to determine the ability of each compound to inhibit the growth of N. gonorrhoeae strain NCCP11945 at 1 mM in GC solid media (Table 1). This strain was chosen due to its relatively recent isolation, its antibiotic resistance profile, and the availability of a complete genome sequence. Those candidates able to inhibit the growth of N. gonorrhoeae strain NCCP11945 were investigated in a second assay. The second assay tested the ability of each compound to cause at least a 4-log reduction in viable bacteria at 1 mM with a 2-min exposure time (Table 1).
(§2) The well-characterized N. gonorrhoeae NCCP11945 strain ([36]) was used in the screening stage. Eight isolates obtained from Public Health England, representing circulating isolates from various European locations, were used in the log reduction assays. All isolates were cultured for 24 h prior to testing by plating on GC solid medium (Oxoid Limited, Hampshire, United Kingdom) with Kellogg supplements and incubation at 37°C and 5% CO2 ([37]).

bovine RBCs = assay: Red blood cell (RBC) lysis assay; assay type: cell-based
Experimental: Whole bovine blood was obtained from a local slaughter house (ABP), adding 90 ml blood to 10 ml 110 mM trisodium citrate anticoagulant. RBCs were isolated the same day. The RBCs were washed by three repeats of centrifugation (1,500 × g for 10 min) and resuspension in phosphate-buffered saline (PBS) with 10 mM glucose (PBSG). Testing was done following the guidelines of the European Union Reference Laboratory for alternatives to animal testing (EURL-ECVAM) ([22]). The organic acids were solubilized in dimethyl sulfoxide (DMSO) and diluted to a maximum DMSO concentration of 10%. In a 2-ml centrifuge tube, 750 µl of the sample was added to 250 µl RBCs. Controls used in the assay were a complete lysis control (deionized water) and a fragility control (PBSG–10% DMSO). Samples were shaken at room temperature for 1 h and then centrifuged at 14,000 × g for 2 min. An aliquot of 750 µl of the supernatant was taken and its absorbance at 451 nm measured.

[2] = system: N. gonorrhoeae strain NCCP11945; assay: Log reduction assay in GC broth, 2-min exposure; assay type: cell-based, Neisseria gonorrhoeae; conditions: for Log reduction at 1 mM (calculated log reduction in viable bacteria) / log reduction at 1000 µM: maximum score 6 = all cells killed; for log reduction at 1000 µM: Neisseria gonorrhoeae, NCCP11945, 2 min, 1 mM, read-out: Log reduction at 1 mM (calculated log reduction in viable bacteria)
Experimental: as §1
(§3) Log reductions were done as described by Bergsson and coworkers ([18]). Briefly, cells were suspended in GC broth (18 g/liter GC base [Oxoid, Limited] with added defined supplements) to an optical density at 520 nm of 0.3, which is approximately equivalent to 10^7 to 10^8 cells per ml ([38]). […] The contents of the tubes were then mixed at room temperature for 2 min and immediately diluted in a 10-fold dilution series to 10^−4. The dilutions were plated by spreading 10 µl on a quarter of a plate; a 100-µl neat solution was also plated. Plates were then incubated at 37°C for 48 h, with all samples plated in duplicate. […] Additional testing at lower concentrations was also done on the eight clinical isolates of European origin.

[3] = system: gonococcal cells (isolate NCCP 11945); assay: Log reduction in artificial tear fluid with or without calcium chloride; assay type: cell-based, Neisseria gonorrhoeae; conditions: for Reduction in bacterial cell number in artificial tear fluid containing calcium chloride / Antigonococcal properties in tear fluid made without calcium chloride: 1 mM candidate, 2 min; for Reduction in bacterial cell number in artificial tear fluid containing calcium chloride: with calcium; for Effect of calcium in artificial tear fluid on antimicrobial effect: calcium 1 mM, Fig. 2
Experimental: The antigonococcal properties of the seven selected fatty acids were tested in artificial tear fluid, which contained calcium chloride. The addition of 1 mM lauric acid, tridecanoic acid, or sodium dodecanoate gave no reduction in bacterial cell number after exposure, in contrast to the results seen when they were tested in culture medium (Fig. 2). […] This was most likely due to the negative effect of calcium on the aqueous solubility of these candidates.
Artificial tear fluid was made as described by Mirejovsky and others ([39]) with or without calcium chloride. […] As with the previous log reductions, 10^7 gonococcal cells (isolate NCCP 11945) were suspended in GC broth. The cell suspension was centrifuged to remove the culture medium, and the bacteria were resuspended in the tear fluid. This was then added to the concentrated organic acid candidates. The cells were then enumerated again after 2 min of exposure to estimate any reduction in cell number due to the exposure to the organic acid.

[4] = system: nine gonococcal isolates (strain NCCP11945 and eight isolates from Public Health England); assay: Minimum bactericidal concentration by log reduction against nine gonococcal isolates; assay type: cell-based, Neisseria gonorrhoeae; conditions: for Killing of all gonococcal cells for all isolates: 1 mM; for MBC: lowest concentration giving mean log reduction above 4 from a 2-min exposure
Excerpt: The seven candidates were further tested against nine gonococcal isolates, including strain NCCP11945 and eight isolates from Public Health England, to find their minimal bactericidal concentration (MBC). This was defined as the lowest concentration tested to give an average 4-log10 reduction in bacterial count after a 2-min exposure. […] Any candidate that killed all gonococcal cells in the cell suspension was given a log reduction score of six.
as §2, §3

bovine cornea = assay: Bovine corneal opacity and permeability (BCOP) test
Experimental: Bovine eyes were collected from a local slaughter house (ABP, Guildford, Surrey, United Kingdom) and were transported in cold saline solution for testing at the laboratory. Each eye was first visually examined for signs of damage before use. The test was conducted as detailed by Abdelkader and coworkers ([21]). The exposure time of the test substances was 30 s. The selected bactericidal compounds were tested at 1 mM in saline solution, with a corresponding vehicle control (1% ethanol–saline solution) also performed. […] The test area of the cornea was then washed with 10 ml saline solution. Corneal damage to the test area was assessed by fluorescein staining and examination under a cobalt blue filter. Pathological scoring based on opacity, epithelial integrity, and epithelial detachment was done in accordance with previous publications ([19]). Each of the seven lead candidates was tested in triplicate, and each test was performed on a separate day using a different batch of eyeballs. Corneal histology was done as outlined by Abdelkader and coworkers ([21]) by evaluating the damage to the epithelial layer and stroma of the cornea after hematoxylin and eosin staining.

S. aureus = system: S. aureus; set-up: method as in PMID 22808139; conditions: continuous passage on sublethal concentrations for a year; cited from earlier work
C. trachomatis = system: C. trachomatis; set-up: method as in PMID 9736551; conditions: cited from earlier work
[5] = Neisseria gonorrhoeae, 2 min, read-out: MBC

Structure (SMILES) | Growth inhibition [1] | Log reduction at 1 mM: at least a 4-log reduction in viable bacteria (Yes/No) [2] | Effect of calcium in artificial tear fluid on antimicrobial effect [3] | Killing of all gonococcal cells for all isolates ([4]; 2 min) | log reduction at 1000 µM [2] | MBC [4, 5] [µM] | further results
CC(C)=O [Acetone, acetone] | – | – | – | – | – | – | HET-CAM irritancy / reaction at site of application (chorioallantoic membrane): Medium Irritant
CCCCCCCCCCCC(=O)O [Lauric acid] | Yes | Yes | inactivated | killed all gonococcal cells for all isolates | – | – | H50 concentration relative to MBC (bovine RBCs): greater than their MBCs; Log reduction at 1 mM (calculated log reduction in viable bacteria) [2]: > 6 log10; Reduction in bacterial cell number in artificial tear fluid containing calcium chloride [3]: no reduction; Antigonococcal properties in tear fluid made without calcium chloride [3]: completely restored; MBC [4]: 750 µM (≈ 150 µg/mL)
CC/C=C\C/C=C\C/C=C\CCCCCCCC(=O)O [Linolenic acid] | Yes | Yes | – | did not | > 6 | 500 (≈ 139 µg/mL) | H50 concentration relative to MBC (bovine RBCs; H50 = concentration to lyse 50% of RBCs, MBC from Table 1): lower than their minimum bactericidal concentration; Mean cumulative BCOP score (bovine cornea; 1 mM in saline solution, 30 s exposure, triplicate): lower than 0.5; Fluorescein staining of cornea (bovine cornea; 1 mM, around rubber application ring): any sign of fluorescein staining; BCOP irritancy classification (bovine cornea; candidates 1 mM in saline, controls 0.5 M NaOH, 100% acetone, 30 s exposure): nonirritants
CCCCCCCCCCCC(=O)OCC(O)CO (stereo not drawn) [Monolaurin] | Yes | No | – | – | – | – | Log reduction at 1 mM (calculated log reduction in viable bacteria) [2]: 3.4 log10; Development of antimicrobial resistance (S. aureus): did not develop
CCCC/C=C\CCCCCCCC(=O)O [Myristoleic acid] | Yes | Yes | unaffected | killed all gonococcal cells for all isolates | > 6 | 500 (≈ 113 µg/mL) | Activity against C. trachomatis (C. trachomatis): ineffective
[Na+].[OH-] [Sodium Hydroxide, sodium hydroxide, reference compound] | – | – | – | – | – | – | Corneal opacity, fluorescein staining and histology of epithelial layer (bovine cornea; Fig. 4): complete detachment; HET-CAM irritancy / reaction at site of application (chorioallantoic membrane): Strong Irritant
CCCCCCCCCCCCC(=O)O [Tridecanoic acid] | Yes | Yes | inactivated | did not | > 6 | 750 (≈ 161 µg/mL) | H50 concentration relative to MBC (bovine RBCs): greater than their MBCs; RBC lysis (hemolysis) (bovine RBCs; 1 h incubation, bovine RBCs): did not lyse RBCs at any concentration investigated; also recorded: did not cause any hemolysis; Reduction in bacterial cell number in artificial tear fluid containing calcium chloride [3]: no reduction; Antigonococcal properties in tear fluid made without calcium chloride [3]: completely restored
